In publication PMC5464773 (eLife, 2017):
Like-named read-outs stand apart in the source and are kept apart here.

How the values were obtained:
[1] = biological target: T1, Mcl-1 (Homo sapiens, UniProt Q07820); assay: Competition fluorescence polarization (anisotropy) with fluoresceinated BIM; type: binding
T1 construct: c-myc
Experimental: C-myc-tagged receptors were used for all Bcl-2 homologs, as previously described ([DeBartolo et al., 2012]; [Dutta et al., 2010]). Plates were mixed at 23°C for 3 hr. Plates were read again at 24 to check equilibration. Experiments were done in at least triplicate. Data were fit, as described for competition fluorescence anisotropy experiments in [Foight et al. (2014]), to a complete competitive binding model (equation 17 in [Roehrl et al. [2004]]) using a Python script.

[2] = biological target: T2, Bcl-w (Homo sapiens, UniProt Q92843); assay: as above; type: binding
T2 construct: c-myc
T2 sequence (Q92843 1-193): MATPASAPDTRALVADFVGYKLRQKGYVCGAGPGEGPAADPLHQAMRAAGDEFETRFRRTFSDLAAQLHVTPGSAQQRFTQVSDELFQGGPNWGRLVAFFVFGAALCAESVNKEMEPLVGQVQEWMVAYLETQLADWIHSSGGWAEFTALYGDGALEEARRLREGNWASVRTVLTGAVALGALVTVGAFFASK
Experimental: (§1) Plates were mixed at 23°C for 3 hr. Plates were read again at 24 to check equilibration. Experiments were done in at least triplicate.

[3] = biological target: T3, Bcl-xL (Homo sapiens, UniProt Q07817); assay: as above; type: binding
T3 construct: c-myc
T3 sequence (Q07817 whole entry): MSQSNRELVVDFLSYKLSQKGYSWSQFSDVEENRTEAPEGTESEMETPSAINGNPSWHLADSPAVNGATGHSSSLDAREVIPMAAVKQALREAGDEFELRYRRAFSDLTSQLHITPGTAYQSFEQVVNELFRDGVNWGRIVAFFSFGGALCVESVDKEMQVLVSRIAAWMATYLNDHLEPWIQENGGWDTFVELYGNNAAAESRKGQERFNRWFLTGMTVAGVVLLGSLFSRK
Experimental: as §1

[4] = system: BCR-ABL-expressing B-lineage acute lymphoblastic leukemia cells dependent on Bcl-2; assay: BH3 profiling, mitochondrial depolarization (JC-1) in permeabilized cells; type: cell-based; conditions: BH3 profiling fits Bcl-2, sigmoidal dose-response (variable slope); for Bottom (best-fit value): constrained (Bottom < 5 or 0 < Bottom < 5); for Top (best-fit value): constrained (Top > 78 or Top < 100); for LogEC50 (best-fit value): x = Log [Peptide] M, fits ambiguous or hit constraint
Experimental: We tested our designed peptides for Bfl-1 selective targeting by carrying out BH3 profiling of cells with known dependencies on anti-apoptotic proteins. In this assay, peptides are titrated into permeabilized cells, and mitochondrial depolarization is measured using the voltage-sensitive dye JC-1 (Figure 7A) ([Deng et al., 2007]). We tested the apoptotic sensitivity of BCR-ABL-expressing B-lineage acute lymphoblastic leukemia cell lines engineered to depend on Bcl-2, Bcl-xL, Mcl-1 or Bfl-1 overexpression for survival ([Koss et al., 2016]). […] EC50 values for inducing mitochondrial permeabilization in the engineered cell lines agreed well with trends in Bfl-1-binding affinities, as expected based on the mechanism of action (Figure 7C).
The creation and characterization of the BCR-ABL-expressing B-lineage acute lymphoblastic leukemia suspension cell lines with engineered dependencies on human versions of anti-apoptotic genes is detailed in [Koss et al. (2016)]). Cells were grown in RPMI (Life Technologies, Carlsbad, CA) with 10% fetal bovine serum, 2 mM L-glutamine, 10 mL/L 100x Pen/Strep (Life Technologies # 15140122), 25 mM HEPES and 10 mL/L 100x NEAA (Life Technologies, 11140050). The adherent cell lines PC-3 (RRID: CVCL_0035) and SF295 (RRID: CVCL_1690) are from the NCI60 panel ([Lorenzi et al., 2009]) and were grown in RPMI (Life Technologies) with 10% fetal bovine serum, 2 mM L-glutamine and 10 mL/L 100x Pen/Strep (Life Technologies # 15140122 ). Cell line identities were confirmed by STR profiling. The Lookout Mycoplasma PCR detection kit (Sigma) was used to detect mycoplasma infection. Mycoplasma was only detected in the PC-3 cell line, and internal controls were used to account for this phenotype.
(§2) Peptides were titrated by serial dilution in MEB buffer (150 mM Mannitol, 10 mM HEPES-KOH pH 7.5, 50 mM KCl, 0.02 mM EGTA, 0.02 mM EDTA, 0.1% BSA and 5 mM Succinate) containing 20 μg/mL oligomycin, 50 μg/mL digitonin, 2 μM JC-1 and 10 mM 2-mercaptoethanol in 384-well plates. Controls for no depolarization (1% DMSO) and complete depolarization with the mitochondrial oxidative phosphorylation uncoupler FCCP (20 μM) were included for data normalization. Cells were suspended at 1.67 × 10^6 cells/mL in MEB. 15 μL of cell suspension was added to each well containing 15 μL of treatment solution. Fluorescence emission was measured every 5 min for 3 hr at 590 nM with 525 nm excitation on a Tecan Safire2. To produce percent depolarization, the area under the resultant curve was calculated and normalized to the assay controls. Peptide titration curves were fit to sigmoidal dose-response curves using Graphpad PRISM seven to obtain EC50 values.

[5] = system: BCR-ABL-expressing B-lineage acute lymphoblastic leukemia cells dependent on Mcl-1; assay: as above; type: cell-based; conditions: BH3 profiling fits Mcl-1, sigmoidal dose-response (variable slope); for Top (best-fit value): constrained (Top < 100 or Top > 78); for LogEC50 (best-fit value): x = Log [Peptide] M, fits hit constraint or ambiguous
Experimental: Cell line identities were confirmed by STR profiling.
as §2, with “Cells were suspended at 1.67 × 10^6 cells/mL in MEB.” left out, “Fluorescence emission was measured every 5 min for 3 hr at 590 nM with 525 nm excitation on a Tecan Safire2.” left out

[6] = biological target: T4, Bfl-1 (Homo sapiens, UniProt Q16548); assay: Competition fluorescence polarization (anisotropy) with fluoresceinated BIM; type: binding; conditions: competition FP source data; for Ki: mean of three replicates
T4 construct: c-myc
T4 sequence (Q16548 1-175): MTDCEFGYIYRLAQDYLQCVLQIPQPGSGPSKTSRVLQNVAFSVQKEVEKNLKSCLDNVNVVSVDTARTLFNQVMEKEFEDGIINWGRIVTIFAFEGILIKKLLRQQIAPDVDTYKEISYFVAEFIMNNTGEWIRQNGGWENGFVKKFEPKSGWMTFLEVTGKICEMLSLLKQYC
Experimental: as §1

[7] = competition FP source data, mean of three replicates, values above 5 μM are reported as > 5 μM in the figures, read-out: mean Ki (M) Mcl-1
[8] = competition FP source data, replicate 1
[9] = competition FP source data, replicate 2
[10] = competition FP source data, replicate 3
[11] = competition FP source data, mean of three replicates, values above 5 μM are reported as > 5 μM in the figures, read-out: mean Ki (M) Bcl-w
[12] = competition FP source data, mean of three replicates, values above 5 μM are reported as > 5 μM in the figures, read-out: mean Ki (M) Bcl-xL
[13] = competition FP, 50 nM c-myc-tagged receptor + 25 nM fluoresceinated BIM, Tris pH 7.8, 23°C, 3 hr, mean ± SD of three replicates, read-out: Ki (nM) Bcl-w

T1 sequence (Q07820 whole entry): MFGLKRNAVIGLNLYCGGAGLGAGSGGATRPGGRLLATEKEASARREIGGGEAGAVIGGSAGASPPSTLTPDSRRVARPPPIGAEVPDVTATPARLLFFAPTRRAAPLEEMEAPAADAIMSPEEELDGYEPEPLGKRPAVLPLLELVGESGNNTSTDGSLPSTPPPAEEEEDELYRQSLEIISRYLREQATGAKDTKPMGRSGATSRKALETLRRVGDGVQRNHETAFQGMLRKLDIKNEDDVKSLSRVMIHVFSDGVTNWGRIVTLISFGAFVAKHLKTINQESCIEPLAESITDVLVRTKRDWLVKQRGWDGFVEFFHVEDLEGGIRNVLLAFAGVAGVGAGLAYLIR

| Substance | Ki [1, 7] [M] | Ki (M) Mcl-1 [1, 8] [M] | Ki (M) Mcl-1 [1, 9] [M] | Ki (M) Mcl-1 [1, 10] [M] | Ki [2, 11] [M] | Ki (M) Bcl-w [2, 8] [M] | Ki (M) Bcl-w [2, 9] [M] | Ki (M) Bcl-w [2, 10] [M] | Ki [3, 12] [M] | Ki (M) Bcl-xL [3, 8] [M] | Ki (M) Bcl-xL [3, 9] [M] | Ki (M) Bcl-xL [3, 10] [M] | HillSlope (best-fit value) [4] | Bottom (best-fit value) [4] | Top (best-fit value) [4] | LogEC50 (best-fit value) [4] | HillSlope (best-fit value) [5] | Top (best-fit value) [5] | LogEC50 (best-fit value) [5] | Ki [2, 13] [M] | other results |
| --- | --- | --- | --- | --- | --- | --- | --- | --- | --- | --- | --- | --- | --- | --- | --- | --- | --- | --- | --- | --- | --- |
| Ac-QWIREIAAGLRRFADILNAQVER-NH2 [FS3] | 5.52e-07 | 6.51e-07 | 6.19e-07 | 3.85e-07 | 7.67e-07 | 7.55e-07 | 8.54e-07 | 6.93e-07 | 3.23e-07 | 2.75e-07 | 4.23e-07 | 2.72e-07 | 1.964 | ~ 5 | ~ 100 | -5.077 | 0.8379 | ~ 100 | -5.183 |  | Bottom (best-fit value) ([5]; constrained (0 < Bottom < 5 or Bottom < 5)): 4.876 |
| Ac-QWVREIAAGLRLAADNVNAQLER-NH2 [FS1] | 7.64e-06 | 2.37e-06 | 8.12e-06 | 1.24e-05 | 7.76e-06 | 5.7e-06 | 7.42e-06 | 1.02e-05 | 2.38e-06 | 2.02e-06 | 2.84e-06 | 2.27e-06 | 0.3224 | ~ 5 | ~ 78 | ~ -2.821 | 0.346 | 99.39 | -4.985 | > 5e-06 | Ki ([1]; competition FP, 50 nM c-myc-tagged receptor + 25 nM fluoresceinated BIM, Tris pH 7.8, 23°C, 3 hr, mean ± SD of three replicates, read-out: Ki (nM) Mcl-1): > 5e-06 M; Ki [6]: 0.0149 µM; Ki (M) Bfl-1 ([6]; replicate 1): 1.51e-08 M; Ki (M) Bfl-1 ([6]; replicate 2): 1.72e-08 M; Ki (M) Bfl-1 ([6]; replicate 3): 1.22e-08 M |
| Ac-QWVREIAAGLRRAADDVNAQVER-NH2 [FS2] |  | 2.88e-06 | 3.39e-06 | 3.32e-06 | 8.27e-06 | 1.14e-05 | 6.45e-06 | 6.96e-06 | 7.07e-06 | 6.54e-06 | 1e-05 | 4.66e-06 | 1.067 | ~ 5 | ~ 100 | -4.482 | 0.4032 | ~ 100 | -4.604 | > 5e-06 | fold weaker binding to Mcl-1 than to Bfl-1 ([1]; ratio of Ki values from competition FP): > 100 fold; Ki ([3]; competition FP, 50 nM c-myc-tagged receptor + 25 nM fluoresceinated BIM, Tris pH 7.8, 23°C, 3 hr, mean ± SD of three replicates, read-out: Ki (nM) Bcl-xL): > 5e-06 M; Ki [6]: 0.0214 µM; Ki (M) Bfl-1 ([6]; replicate 1): 2.51e-08 M; Ki (M) Bfl-1 ([6]; replicate 2): 2.52e-08 M; Ki (M) Bfl-1 ([6]; replicate 3): 1.4e-08 M |
